According to ChEMBL document CHEMBL5380793, “Structure-Activity Relationship of Novel Pyrimidine Derivatives with Potent Inhibitory Activities against Mycobacterium tuberculosis” (J Med Chem, 2023):
In brackets after ≈: the same amount, converted by molar mass.

What was measured:
[1] = test system: Mycobacterium tuberculosis; assay: Antibacterial activity against Mycobacterium tuberculosis clinical isolate K12 assessed as inhibition of bacterial growth incubated for 6 days by microplate alamar blue assay; assay type: functional; conditions: K12, 144 h, time 6 day
[2] = test system: Mycobacterium tuberculosis; assay: Antibacterial activity against Mycobacterium tuberculosis H37Rv assessed as inhibition of bacterial growth incubated for 6 days by microplate alamar blue assay; assay type: functional; conditions: 144 h, time 6 day
[3] = test system: Mycobacterium tuberculosis; assay: Antibacterial activity against Mycobacterium tuberculosis clinical isolate K16 assessed as inhibition of bacterial growth incubated for 6 days by microplate alamar blue assay; assay type: functional; conditions: K16, 144 h, time 6 day
[4] = test system: Mycobacterium tuberculosis; assay: Antibacterial activity against Mycobacterium tuberculosis clinical isolate K4 assessed as inhibition of bacterial growth incubated for 6 days by microplate alamar blue assay; assay type: functional; conditions: K4, 144 h, time 6 day
[5] = test system: Mycobacterium tuberculosis; assay: Antibacterial activity against Mycobacterium tuberculosis clinical isolate K5 assessed as inhibition of bacterial growth incubated for 6 days by microplate alamar blue assay; assay type: functional; conditions: K5, 144 h, time 6 day
[6] = test system: Mycobacterium tuberculosis; assay: Antitubercular activity against marker free autoluminescent Mycobacterium tuberculosis H37Ra assessed as reduction in relative light unit measured once a day for 6 days; assay type: functional; conditions: 144 h, time 6 day
[7] = AUC(0 to t) in Sprague-Dawley rat at 5 mg/kg, iv measured for 24 hrs by LC-MS analysis; assay type: ADME, organism-based; parameters: dose 5 mg/kg, time 24 hrs, route iv; conditions: in vivo
[8] = test system: Mycobacterium tuberculosis; assay: Antitubercular activity against autoluminescent Mycobacterium tuberculosis H37Ra infected in BALB/c mouse assessed as reduction in relative light unit at 300 mg/kg, po administered once daily by oral gavage for 5 days and measured every 2 days by luminometer based analysis; assay type: functional; conditions: time 5 day
Staphylococcus aureus = assay: Antibacterial activity against methicillin-resistant Staphylococcus aureus assessed as inhibition of bacterial growth; assay type: functional
[9] = Cytotoxicity against human HepG2 cells assessed as inhibition of cell growth incubated for 48 hrs by MTT assay; assay type: toxicity, cell-based
[10] = Tmax in Sprague-Dawley rat at 15 mg/kg, po measured for 24 hrs by LC-MS analysis; assay type: ADME, organism-based; conditions: in vivo
[11] = biological target: T1, Dihydrofolate reductase (Mycobacterium tuberculosis) (UniProt P9WNX1); assay: Inhibition of Mycobacterium tuberculosis DHFR at 100 uM relative to control
T1 sequence (whole entry): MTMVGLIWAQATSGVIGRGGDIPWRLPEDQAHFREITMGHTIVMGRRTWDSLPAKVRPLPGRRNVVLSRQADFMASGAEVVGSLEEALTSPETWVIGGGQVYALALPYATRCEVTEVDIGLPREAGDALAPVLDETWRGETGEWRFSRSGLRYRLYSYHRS

[12] = Toxicity in BALB/c mouse assessed as mouse death at 800 mg/kg, po measured for 2 weeks; assay type: organism-based; conditions: in vivo, 336 h
[13] = AUC(0 to t) in Sprague-Dawley rat at 15 mg/kg, po measured for 24 hrs by LC-MS analysis; assay type: ADME, organism-based; parameters: dose 15 mg/kg, time 24 hrs, route po; conditions: in vivo
[14] = Oral bioavailability in Sprague-Dawley rat at 15 mg/kg measured for 24 hrs by LC-MS analysis; assay type: ADME, organism-based; conditions: in vivo
[15] = Toxicity in BALB/c mouse assessed as reduction in ALP level at 800 mg/kg, po measured at 14 days; assay type: organism-based; conditions: in vivo, 336 h, time 14 day
[16] = biological target: T1, Dihydrofolate reductase (Mycobacterium tuberculosis); assay: Inhibition of Mycobacterium tuberculosis DHFR at 10 uM relative to control
[17] = Toxicity in BALB/c mouse assessed as increase in AST level at 800 mg/kg, po measured at 14 days; assay type: organism-based; conditions: in vivo, 336 h, time 14 day
[18] = Cmax in Sprague-Dawley rat at 5 mg/kg, iv measured for 24 hrs by LC-MS analysis; assay type: ADME, organism-based; parameters: time 24 hrs, dose 5 mg/kg, route iv; conditions: in vivo
[19] = biological target: T2, Serine/threonine-protein kinase PknB (Mycobacterium tuberculosis) (UniProt P9WI81); assay: Binding affinity to Mycobacterium tuberculosis PknB assessed as thermal stability by measuring melting temperature at 100 uM incubated for 0.5 hrs by SYPRO orange dye based differential scanning fluorimetry analysis (reference value: 59 degreeC)
T2 sequence (whole entry): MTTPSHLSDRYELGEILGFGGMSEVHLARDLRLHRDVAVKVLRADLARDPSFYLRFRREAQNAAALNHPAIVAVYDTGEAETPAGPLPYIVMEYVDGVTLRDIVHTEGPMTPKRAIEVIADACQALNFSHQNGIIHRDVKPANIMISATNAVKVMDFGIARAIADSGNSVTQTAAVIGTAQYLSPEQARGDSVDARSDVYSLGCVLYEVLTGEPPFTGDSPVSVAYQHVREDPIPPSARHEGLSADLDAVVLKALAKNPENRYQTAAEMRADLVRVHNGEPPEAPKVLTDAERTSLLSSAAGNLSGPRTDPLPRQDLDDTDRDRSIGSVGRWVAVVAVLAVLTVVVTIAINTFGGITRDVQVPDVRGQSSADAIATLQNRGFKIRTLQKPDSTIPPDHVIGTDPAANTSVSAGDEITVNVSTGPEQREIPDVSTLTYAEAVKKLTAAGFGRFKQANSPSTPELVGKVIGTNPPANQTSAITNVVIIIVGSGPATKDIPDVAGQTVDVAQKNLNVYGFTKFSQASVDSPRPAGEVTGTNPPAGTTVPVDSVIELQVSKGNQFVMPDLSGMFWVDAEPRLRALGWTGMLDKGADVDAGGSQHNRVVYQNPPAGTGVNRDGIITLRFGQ

Escherichia coli = assay: Antibacterial activity against Escherichia coli assessed as inhibition of bacterial growth; assay type: functional
[20] = Toxicity in BALB/c mouse assessed as reduction in LDH level at 800 mg/kg, po measured at 14 days; assay type: organism-based; conditions: in vivo, 336 h, time 14 day
[21] = Cmax in Sprague-Dawley rat at 15 mg/kg, po measured for 24 hrs by LC-MS analysis; assay type: ADME, organism-based; parameters: dose 15 mg/kg, time 24 hrs, route po; conditions: in vivo
[22] = biological target: T3, Serine/threonine-protein kinase PknB (Mycobacterium tuberculosis, UniProt P9WI81); assay: Binding affinity to Mycobacterium tuberculosis PknB assessed as dissociation constant at 600 uM by ITC analysis
T3 sequence (P9WI81 whole entry): T2 sequence (whole entry)

[23] = Apparent clearance during terminal phase in Sprague-Dawley rat at 5 mg/kg, iv measured for 24 hrs by LC-MS analysis; assay type: ADME, organism-based; conditions: in vivo
[24] = Toxicity in BALB/c mouse assessed as increase in uric acid level at 800 mg/kg, po measured at 14 days; assay type: organism-based; conditions: in vivo, 336 h, time 14 day
[25] = test system: Mycobacteroides abscessus; assay: Antibacterial activity against Mycobacterium abscessus assessed as inhibition of bacterial growth; assay type: functional
[26] = test system: Mycolicibacterium smegmatis; assay: Antibacterial activity against Mycobacterium smegmatis assessed as inhibition of bacterial growth; assay type: functional
[27] = Toxicity in BALB/c mouse assessed as histopathological changes in kidney at 800 mg/kg, po measured at 14 days by H and E staining based analysis; assay type: organism-based; conditions: in vivo, 336 h, time 14 day
[28] = Half life in Sprague-Dawley rat at 5 mg/kg, iv measured for 24 hrs by LC-MS analysis; assay type: ADME, organism-based; conditions: in vivo
[29] = biological target: T2, Serine/threonine-protein kinase PknB (Mycobacterium tuberculosis); assay: Binding affinity to Mycobacterium tuberculosis PknB assessed as thermal stability by measuring change in melting temperature at 100 uM incubated for 0.5 hrs by SYPRO orange dye based differential scanning fluorimetry analysis
[30] = Toxicity in BALB/c mouse assessed as body weight loss at 800 mg/kg, po measured for 2 weeks; assay type: organism-based; conditions: in vivo, 336 h
[31] = biological target: T2, Serine/threonine-protein kinase PknB (Mycobacterium tuberculosis); assay: Binding affinity to Mycobacterium tuberculosis PknB assessed as gibbs free energy at 600 uM by ITC analysis
[32] = Toxicity in BALB/c mouse assessed as mouse death at 300 mg/kg, po measured after 6 days; assay type: organism-based; conditions: in vivo, 144 h, time 6 day

## CO[C@H]1/C=C/O[C@@]2(C)Oc3c(C)c(O)c4c(O)c(c(/C=N/N5CCN(C)CC5)c(O)c4c3C2=O)NC(=O)/C(C)=C\C=C\[C@H](C)[C@H](O)[C@@H](C)[C@@H](O)[C@@H](C)[C@H](OC(C)=O)[C@@H]1C [RIFAMPIN]
[1]
  MIC: > 10 mg/L
[2]
  MIC: < 1 mg/L
[3]
  MIC: > 10 mg/L
[4]
  MIC: > 50 mg/L
[5]
  MIC: > 50 mg/L

## NNC(=O)c1ccncc1 [ISONIAZID]
[1]
  MIC: > 10 mg/L
[2]
  MIC: < 1 mg/L
[3]
  MIC: > 10 mg/L
[4]
  MIC: > 50 mg/L
[5]
  MIC: > 50 mg/L

## Cc1cc(Nc2nc(-c3ccccc3)ncc2Cl)c(OC(C)C)cc1C1CCNCC1
[1]
  MIC: 0.5 mg/L (≈ 1.14 µM)
[6]
  MIC: 0.5 mg/L (≈ 1.14 µM)
[7]
  AUC(0-t) at 24 h: 1.69 µg·h/mL
[8]
  Activity: 0.5 log10RLU
Staphylococcus aureus
  MIC: 4 mg/L (≈ 9.15 µM)
[9]
  IC50 at 48 h: 3.1 µM
[10]
  Tmax: > 24 h
[11]
  inhibition: 7.1%
[12]
  Activity: Non-Toxic
[2]
  MIC: 0.5 mg/L (≈ 1.14 µM)
[13]
  AUC(0-t) at 24 h: 2.08 µg·h/mL
[14]
  bioavailability: 40.7%
[15]
  Activity: Toxic
[16]
  inhibition: 4.5%
[17]
  Activity: Toxic
[18]
  Cmax: 0.595 µg/mL
[19]
  Tm: 54 °C
Escherichia coli
  MIC: > 16 mg/L
[20]
  Activity: Toxic
[21]
  Cmax: 0.108 µg/mL
[22]
  Kd: 9.4 µM
[3]
  MIC: 1 mg/L (≈ 2.29 µM)
[4]
  MIC: 0.5 mg/L (≈ 1.14 µM)
[23]
  CLz/F: 1.5 L/h/kg
[24]
  Activity: Toxic
[25]
  MIC: 4 mg/L (≈ 9.15 µM)
[26]
  MIC: 4 mg/L (≈ 9.15 µM)
[5]
  MIC: 1 mg/L (≈ 2.29 µM)
[27]
  Activity: Toxic
[28]
  half-life: 26.2 h
[29]
  ΔTm: -5 °C
[30]
  Activity: Non-Toxic
[31]
  deltaG: -13 kJ/mol

## Cc1cc(Nc2ncc(Cl)c(Nc3cccc4ccccc34)n2)c(OC(C)C)cc1C1CCNCC1
Staphylococcus aureus
  MIC: 8 mg/L (≈ 15.9 µM)
[11]
  inhibition: 4.4%
[14]
  bioavailability: 17.5%
[16]
  inhibition: 3.1%
Escherichia coli
  MIC: > 16 mg/L
[25]
  MIC: 16 mg/L (≈ 31.9 µM)
[26]
  MIC: 16 mg/L (≈ 31.9 µM)

## Cc1cc(Nc2nc(Nc3ccc(F)cc3)ncc2Cl)c(OC(C)C)cc1C1CCNCC1
[1]
  MIC: 1 mg/L (≈ 2.13 µM)
[32]
  Activity: Toxic
[6]
  MIC: 0.5 mg/L (≈ 1.06 µM)
Staphylococcus aureus
  MIC: 4 mg/L (≈ 8.51 µM)
[9]
  IC50 at 48 h: 2.2 µM
[11]
  inhibition: 3.5%
[2]
  MIC: 1 mg/L (≈ 2.13 µM)
[16]
  inhibition: 2.8%
Escherichia coli
  MIC: > 16 mg/L
[3]
  MIC: 2 mg/L (≈ 4.26 µM)
[4]
  MIC: 1 mg/L (≈ 2.13 µM)
[25]
  MIC: 8 mg/L (≈ 17 µM)
[26]
  MIC: 4 mg/L (≈ 8.51 µM)
[5]
  MIC: 2 mg/L (≈ 4.26 µM)
